Values quoted from earlier work as cited in patent US20110206693A1, “LYSINE RIBOSWITCH AND COMPOSITIONS AND USES THEREOF” (priority 2008, published 2011).

Tested on: lysine riboswitch
Conditions: for binding / recognition by the lysine riboswitch (in words): qualitative, compared with lysine; for lower affinity than lysine for the RNA: binding to the riboswitch RNA, relative to lysine, Sudarsan 2003 and Blount 2007

| Structure (SMILES) | binding / recognition by the lysine riboswitch (in words) | lower affinity than lysine for the RNA [fold] |
| --- | --- | --- |
| NCCCCC[C@H](N)C(=O)O [L-α-homolysine] | not efficiently bound |  |
| C[N+](C)(C)CCCC[C@H](N)C(=O)[O-] [N^6-trimethyl-L-lysine] | precludes efficient recognition |  |
| N=C(N)NCCCC[C@H](N)C(=O)O [homoarginine] | precludes efficient recognition |  |
| NCCS(=O)(=O)C[C@H](N)C(=O)O [AESA, L-3-[(2-aminoethyl)-sulfonyl]-alanine] |  | 7 |
| NCCSC[C@H](N)C(=O)O [AEC, S-(2-aminoethyl)-L-cysteine] |  | 30 |
| NCCC[C@H](N)C(=O)O [L-ornithine] | not efficiently bound |  |
